Laboratory results as given in BindingDB's records for doi:10.1021/jm021108n (Ghent University, 2003).

What follows are compounds tested against Thymidylate kinase (Homo sapiens) (UniProt P23919) (assay: In Vitro inhibition of […] (TMPKh)).
In the case of Cc1cn([C@H]2C[C@H](CO)[C@@H](CO)O2)c(=O)[nH]c1=O [1-(4,5-Bis-hydroxymethyl-tetrahydro-furan-2-yl)-5-methyl-1H-pyrimidine-2,4-dione], the Ki is reported as 420 µM. Cc1cn([C@@H]2O[C@H](CO)[C@@H](CN)[C@H]2O)c(=O)[nH]c1=O [1-(4-Aminomethyl-3-hydroxy-5-hydroxymethyl-tetrahydro-furan-2-yl)-5-methyl-1H-pyrimidine-2,4-dione] showed a Ki of 110 µM. Work on Cc1cn([C@H]2C[C@H](CN)[C@@H](CO)O2)c(=O)[nH]c1=O [1-(4-Aminomethyl-5-hydroxymethyl-tetrahydro-furan-2-yl)-5-methyl-1H-pyrimidine-2,4-dione] yielded a Ki of 220 µM. Compound Cc1cn([C@H]2C[C@H](CN=[N+]=[N-])[C@@H](CO)O2)c(=O)[nH]c1=O [1-(4-Azidomethyl-5-hydroxymethyl-tetrahydro-furan-2-yl)-5-methyl-1H-pyrimidine-2,4-dione] has a Ki of 1040 µM. In the case of Cc1cn([C@H]2C[C@H](CF)[C@@H](CO)O2)c(=O)[nH]c1=O [1-(4-Fluoromethyl-5-hydroxymethyl-tetrahydro-furan-2-yl)-5-methyl-1H-pyrimidine-2,4-dione], the Ki is reported as 970 µM. Cc1cn([C@@H]2O[C@H](COP(=O)(O)O)[C@@H](CN)[C@H]2O)c(=O)[nH]c1=O [Phosphoric acid mono-[3-aminomethyl-4-hydroxy-5-(5-methyl-2,4-dioxo-3,4-dihydro-2H-pyrimidin-1-yl)-tetrahydro-furan-2-ylmethyl] ester] showed a Ki of 280 µM. Cc1cn([C@H]2C[C@H](CN)[C@@H](COP(=O)(O)O)O2)c(=O)[nH]c1=O [Phosphoric acid mono-[3-aminomethyl-5-(5-methyl-2,4-dioxo-3,4-dihydro-2H-pyrimidin-1-yl)-tetrahydro-furan-2-ylmethyl] ester] was tested, and the Ki was 4.7 µM. Cc1cn([C@H]2C[C@H](CN=[N+]=[N-])[C@@H](COP(=O)(O)O)O2)c(=O)[nH]c1=O [Phosphoric acid mono-[3-azidomethyl-5-(5-methyl-2,4-dioxo-3,4-dihydro-2H-pyrimidin-1-yl)-tetrahydro-furan-2-ylmethyl] ester] gave a Ki of 32 µM. Cc1cn([C@H]2C[C@H](CF)[C@@H](COP(=O)(O)O)O2)c(=O)[nH]c1=O [Phosphoric acid mono-[3-fluoromethyl-5-(5-methyl-2,4-dioxo-3,4-dihydro-2H-pyrimidin-1-yl)-tetrahydro-furan-2-ylmethyl] ester] showed a Ki of 40 µM. Compound Cc1cn([C@H]2C[C@H](CO)[C@@H](COP(=O)(O)O)O2)c(=O)[nH]c1=O [Phosphoric acid mono-[3-hydroxymethyl-5-(5-methyl-2,4-dioxo-3,4-dihydro-2H-pyrimidin-1-yl)-tetrahydro-furan-2-ylmethyl] ester] has a Ki of 43.5 µM.
